Values joined by “and” are separate entries in the source; they are usually repeats but may differ in a detail not shown here. Identical values can stand only once.
Legend:
[1] = system: MUC5AC protein; experiment: Inhibition of MUC5AC protein secretion (modified ELISA) in H292 cells; format: cell-based, human; settings: TNF-alpha 20 ng/ml
Protocol: In order to determine the inhibitory effect on the reproduction of MUC5AC protein, following test was performed by the method disclosed in the literature (Sikder, M A. et al., Phytother. Res., 2014, 28, 62-68)
For the immunoassay on reproduced MUCSAC, 50 μL of collected supernatant in Experimental Example 3 was distributed to 96 well plate and dried in a thermostat at 50[…].
After washing with 1% BSA added PBS solution, MUCSAC antibody (ab3649, abcam Co.) was added to react together at room temperature for 1 hour and then secondary antibody was added thereto to react together for 1 hour. After re-washing, 3,3′,5,5′-tetramethylbenzidine peroxide solution (54827-17-7, Sigma-aldrich) was added thereto to react together for 20 mins. After stopping the reaction by adding sulfuric acid solution, the absorbance was determined by VERSAmax microplate reader, (SMP500-14915, Molecular Devices, USA) at 450 nm (Sikder, M. A. et al., Phytother. Res., 2014, 28, 62-68; Takeyama, K. et al. Proc. Natl. Acad. Sci. U.S.A., 1999, 96, 3081-3086).

[2] = system: asthma-induced animal model (OVA); experiment: Anti-asthma activity in OVA-sensitized/challenged mouse model; format: in vivo, BALB/c mice; settings: OVA asthma mice
Protocol: In order to determine the anti-asthma activity of test sample in asthma-induced animal model, following test was performed by the method disclosed in the literature (Shin, I. S. et al., Food Chem. Toxicol., 2013, 62, 506-513)
Specific pathogen-free female BALB/c mice (about 20 g), aged 6 weeks, which were routinely screened serologically for relevant respiratory pathogens, were purchased from Samtako Co. (Seoul, Korea) and acclimated with the experimental environment under the condition controlling the temperature of 22±2° C., and relative humidity of 55±15%, at light/dark cycle for 1 week prior to experiment.
Briefly, mice were sensitized by intraperitoneal injection of 20 μg OVA (Ovalbumin; A5503, Sigma, St. Louis, Mo.), which was emulsified in 2 mg aluminum hydroxide (A8222, Sigma-Aldrich, MO. USA) in 200 μl of PBS buffer (pH 7.4), biweekly. The mice were challenged through the airways with OVA (1% in PBS) for 30 min using an ultrasonic nebulizer (NE-U12; Omron Corp., Tokyo, Japan) from the 21st day to 23rd day after the initial sensitization. 24 hrs after the antigen treatment, the airway hyperresponsiveness was determined and the mice were sacrificed 48 hrs after the last challenge. The mice were sacrificed with an overdose of pentobarbital (50 mg/kg, Entobal®, Hanil, Korea) 48 h after the last challenge, and a tracheotomy was performed. After 1.4 ml of physiological saline solution (PBS) was instilled into the lungs, bronchoalveolar lavage fluid (BALF) was obtained by aspiration three times via tracheal cannulation.
The groups were divided into several groups, i.e., (a) normal control group(NC): the groups treated or not-treated with OVA; (b) asthma-induced group(OVA): the groups treated with OVA to induce asthma; and (c) comparative group: the groups treated with positive control group (M30, montelukast; 30 mg/kg, PO, Sigma-Aldrich Co. Ltd., SML-0101+OVA) and (d) test sample group: the groups treated with KS534 compound (30 mg/kg, PO, Sigma-Aldrich Co. Ltd., SML-0101+OVA).
The test group consists of 7 mice for each group and various concentrations of the test sample were orally administrated to the mice from 21st to 23rd day after ^1st OVA treatment.
All the result obtained from various experiments was recorded as mean±SD (standard deviation), and the comparison between each group was determined using by one-way ANOVA test using by SPSS 10.0 program. The statistic significance between each group was determined according to Dunnett's multiple comparison tests as a post-hoc test). The result was expressed as P values: <0.05 (*) as statistically significant. […]
BALF was loaded onto a slide and centrifuged to fix the cells onto the slide using a Cellspin machine (Cyto12.5+clip5, Hanil Science Industrial, Korea). The cells were stained by Diff-Quick® Stain reagents (Sysmex, Cat No. 38721, Switzerland) according to the manufacturer's instructions and the number of inflammatory cells in each sample was counted by microscope (×400).
In order to confirm the inhibition effect of test samples on the level of Th2 cytokines (IL-4, IL-5 and IL-13) in bronchoalveolar lavage fluid (BALF), the level of Th2 cytokines (IL-4, IL-5 and IL-13) in bronchoalveolar lavage fluid (BALF) was determined using by ELISA kit (VersaMax, Molecular Devices, USA) specifically reacting with each cytokine according to the manufacture's manual. […]

`O=C(CO)O[C@@H]1O[C@@H]2C[C@H]3[C@H](OC(=O)c4ccc(O)c(O)c4)[C@@H](Cl)[C@@](O)(CO2)[C@@H]13` [KS-534, (3R,5S,5aS,6R,7S,8R,8aS)-8-chloro-8a-hydroxy-5-(2-hydroxyacetoxy) hexahydro-1H-3,6-methanocyclopenta[e][1,3]dioxepin-7-yl3,4-dihydroxybenzoate] was tested, and the “Inhibitory ratio (%) of MUC5AC secretion” value ([1]; 2.5 μm) was 6.62%, the “MUC5AC secretion (relative % comparing with TNF-alpha treatment group)” value ([1]; 2.5 μm) was 93.38% and 93.38 ± 0.90% and the “Inhibitory ratio (%) of MUC5AC secretion” value ([1]; 5 μm) was 21.73%. For the same compound, the “MUC5AC secretion (relative % comparing with TNF-alpha treatment group)” value ([1]; 5 μm) was 78.27% and 78.27 ± 2.16%, the “Inhibitory ratio (%) of MUC5AC secretion” value ([1]; 10 μm) was 35.23% and the “MUC5AC secretion (relative % comparing with TNF-alpha treatment group)” value ([1]; 10 μm) was 64.77% and 64.77 ± 1.56%. The “level of Th2 cytokines (IL-4, IL-5 and IL-13) in BALF” value ([2]; 30 mg/kg PO, ELISA, vs OVA group (FIG. 6)) was “significantly reduced”, the “level of IgE and OVA-specific IgE in blood serum” value ([2]; 30 mg/kg PO, ELISA, vs OVA group (FIG. 7)) was “significantly reduced” and the “invasion of the inflamed cells in lung tissue (H&E histology)” value ([2]; 30 mg/kg PO, vs OVA group (FIG. 8)) was “significantly reduced”. For the same compound, the “mucosal secretion from the goblet cell of bronchial epithelial cells in lung tissue (PAS)” value ([2]; 30 mg/kg PO, vs OVA group (FIG. 9)) was “significantly reduced” and the “total number of eosinophil and inflammatory cells in BALF” value ([2]; oral, vs OVA group (FIG. 5)) was “effectively inhibited”.

Source: US20170217982A1, “Compound isolated from Pseudolysimachion rotundum var. subintegrum, the composition comprising the same for treating allergic disease, inflammatory disease, asthma or chronic obstructive pulmonary disease and the use thereof” (YUNGJIN PHARMACEUTICAL CO., LTD, priority 2014, published 2017)
